Reference: article PMC5063977 (The Journal of Biological Chemistry, 2016)

Biological target: T1, RAMP3-CLR (AM2 receptor) (Homo sapiens, UniProt O60896+Q16602)
T1 construct: FLAG; expressed in transfected cells; host or cells: HEK-293 or HEK-293S cells, transient transfection, 1:1 RAMP:CLR
Assay: cAMP accumulation, HEK-293S cells, RAMP3 + CLR
Type: cell-based
Design: dose or concentration left out as unconfirmed
Conditions: HEK293S, mean ± S.E., n = 5
Description: HEK-293 cells, provided by Dr. Jügen Müller (University of Aston), were cultured in DMEM supplemented with 10% heat-inactivated FBS and kept at 37 °C in a humidified 95% air, 5% CO2 incubator. HEK-293S cells (a gift from AstraZeneca) were cultured in DMEM supplemented with 8% heat-inactivated FBS and kept at 37 °C in a humidified 95% air, 5% CO2 incubator. HEK-293 cells were transfected with FuGENE 6 (Roche Applied Science) in accordance with the manufacturer's instructions using a 1:3 (w:v) DNA:FuGENE ratio and a 1:1 ratio of RAMP to CLR. HEK-293S cells were seeded into 96-well poly-D-lysine-coated plates at a density of 15,000 cells/well (determined using a Countess^TM cell counter, Invitrogen) 1 day prior to transfection. HEK-293S cells were transiently transfected as described previously ([38]) using a 1:1 ratio of RAMP to CLR. The transfected cell lines were grown for 24–48 h prior to assaying.
The transfected HEK-293 cells were washed in PBS, resuspended in stimulation buffer (PBS containing 0.1% BSA and 0.5 mM IBMX), and seeded at 2000 cells/well in 384-well white Optiplates. Ligands were added in the range of 1 pM to 1 mM, and cAMP accumulation was measured after 30 min of stimulation using a LANCE® cAMP detection kit (PerkinElmer Life Sciences). […] Plates were read using a Mithras LB 940 multimode microplate reader (Berthold Technologies). […]

T1 sequence (Q16602 23-461): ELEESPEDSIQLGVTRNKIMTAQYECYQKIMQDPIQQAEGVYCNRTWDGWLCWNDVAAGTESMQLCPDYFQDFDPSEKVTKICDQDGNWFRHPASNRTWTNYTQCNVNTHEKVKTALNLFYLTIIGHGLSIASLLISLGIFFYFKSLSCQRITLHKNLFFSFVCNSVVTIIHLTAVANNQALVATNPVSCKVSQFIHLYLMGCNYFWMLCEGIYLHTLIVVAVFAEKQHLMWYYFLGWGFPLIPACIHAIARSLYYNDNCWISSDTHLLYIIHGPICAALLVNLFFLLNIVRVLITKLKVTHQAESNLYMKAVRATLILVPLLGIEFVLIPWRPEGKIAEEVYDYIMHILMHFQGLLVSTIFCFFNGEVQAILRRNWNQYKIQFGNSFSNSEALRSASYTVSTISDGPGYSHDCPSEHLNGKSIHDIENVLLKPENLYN
T1 sequence (O60896 24-148): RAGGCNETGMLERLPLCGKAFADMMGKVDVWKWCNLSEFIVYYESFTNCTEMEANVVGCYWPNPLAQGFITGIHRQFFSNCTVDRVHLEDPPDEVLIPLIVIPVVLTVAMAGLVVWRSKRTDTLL

Emax: 39.1 ± 1.2%
SMILES: CC[C@H](C)[C@H](NC(=O)[C@H](CCC(N)=O)NC(=O)[C@H](Cc1c[nH]cn1)NC(=O)[C@H](C)NC(=O)[C@H](CC(C)C)NC(=O)[C@H](CCCCN)NC(=O)[C@H](CCC(N)=O)NC(=O)[C@@H](NC(=O)[C@@H](NC(=O)[C@@H]1CSSC[C@H](NC(=O)CNC(=O)[C@H](Cc2ccccc2)NC(=O)[C@H](CO)NC(=O)[C@H](CCCNC(=N)N)NC(=O)[C@H](CC(C)C)NC(=O)CNC(=O)[C@H](CCC(N)=O)NC(=O)[C@H](Cc2ccccc2)NC(=O)[C@H](CC(N)=O)NC(=O)[C@H](CC(N)=O)NC(=O)[C@H](CCSC)NC(=O)[C@H](CO)NC(=O)[C@H](CCC(N)=O)NC(=O)[C@H](CCCNC(=N)N)NC(=O)[C@@H](N)Cc2ccc(O)cc2)C(=O)N[C@@H](CCCNC(=N)N)C(=O)N[C@@H](Cc2ccccc2)C(=O)NCC(=O)N[C@@H]([C@@H](C)O)C(=O)N1)[C@@H](C)O)C(C)C)C(=O)N[C@@H](Cc1ccc(O)cc1)C(=O)N[C@@H](CCC(N)=O)C(=O)N[C@@H](Cc1ccccc1)C(=O)N[C@H](C(=O)N[C@@H](CC(=O)O)C(=O)N[C@@H](CCCCN)C(=O)N[C@@H](CC(=O)O)C(=O)N[C@@H](CCCCN)C(=O)N[C@@H](CC(=O)O)C(=O)N[C@@H](CC(N)=O)C(=O)N[C@H](C(=O)N[C@@H](C)C(=O)N1CCC[C@H]1C(=O)N[C@@H](CCCNC(=N)N)C(=O)N[C@@H](CO)C(=O)N[C@@H](CCCCN)C(=O)N[C@H](C(=O)N[C@@H](CO)C(=O)N1CCC[C@H]1C(=O)N[C@@H](CCC(N)=O)C(=O)NCC(=O)N[C@@H](Cc1ccc(O)cc1)C(N)=O)[C@@H](C)CC)C(C)C)[C@@H](C)O [AM, adrenomedullin]
